Results: EP3539562A1, “IMMUNOTHERAPEUTIC PEPTIDES” (Eberhard Karls Universität Tübingen Medizinische Fakultät, priority 2018, dated 2019)
Entries after “also recorded” stand apart in the source; their conditions may differ.

Tests used:
LN229 cells = experiment: Acute cytotoxicity assay (cell viability, Cell titer blue); type: cell-based; conditions: Homo sapiens, LN-229, DMSO control
Procedure: (§1) LN229 and LNZ308 were seeded as 5,000 cells per well in 96 well plates one day before treatment initiation. All treatments were carried out in serum-free DMEM along with their respective controls, and cell viability measured at 72 h post initial treatment (hpt) using Cell titer blue solution (Promega, Madison, USA) as per manufacturer's instructions. The measured values were converted to percentage cell viability by normalizing each treatment to its respective control within the individual regimen.
(§2) The monotherapies with γ-irradiation and MeV effected dose responses as expected (Fig. 9) and in accordance with cell viability observed previously (Fig. 4). The CT-VT-RT initiated synergistic effect was retained when substituting TMZ by lomustine/CCNU. […] The cell viability and dose dependence in the non-synergistic regimens were similar to those previously observed in triple regimens using TMZ (Fig. 5).

LNZ308 cells = experiment: as above; type: cell-based; conditions: Homo sapiens, DMSO control
Procedure: as §1, §2

GS8 cells = experiment: as above; type: cell-based; conditions: DMSO controls
phospho-STAT1 (Y701) = experiment: Immunoblot analysis after CT-VT-RT with signalling inhibitors; type: cell-based, human; conditions: inhibitor added to CT-VT-RT (BX795 10 µM, fludarabine 100 µM)
Procedure: Cells of interest were lysed in lysis buffer containing 25 mM Tris hydrochloric acid (Tris-HCI), 120 mM sodium chloride (NaCI), 5 mM ethylenediaminetetraacetic acid (EDTA), 0.5% NP-40 and phosphatase inhibitor cocktails (Sigma Aldrich). Proteins were separated on 4-12% polyacrylamide gels (Thermo Fisher Scientific) followed by transfer to PVDF membranes (Thermo Fisher Scientific). […] Antibody against TRAIL ([…]), LC3A ([…]) and β-tubulin (9F3) were purchased from Cell Signalling (Cell Signalling, Dan-vers, USA) and used at a dilution of 1:1,000. Anti-rabbit and Anti-mouse horseradish peroxidase coupled secondary antibodies were purchased from Abcam and used at a concentration of 1:5,000. TBK1/IKKε inhibitor, BX795 was purchased from Invivogen (Invivogen, San Diego, USA) and used at a concentration of 10 μM.

STAT1 = experiment: qPCR mRNA expression in treated LNZ308 cells; type: cell-based, human; conditions: inhibitor applied after CT-VT-RT treatment
Procedure: RNA extractions were performed using the RNeasy mini kit (Qiagen) and reversely transcribed to cDNA using High-Capacity RNA-to-cDNA kit (Thermo Fisher Scientific) according to manufacturer's instructions. For each qPCR reaction, 20 ng of cDNA were amplified with custom designed primers (Supplementary Table 1) and qPCR Mastermix Plus for SYBR Green (Eurogentec, Liege, Belgium) using the 7500 Fast Real time PCR system (Thermo Fisher Scientific). Relative gene expression was determined using the ΔΔ-CT method versus the housekeeping gene ARF1.

IFN-β = experiment: ELISA of supernatants of treated LNZ308 cells; type: cell-based, human; conditions: LNZ308, CT-VT-RT with or without molecular inhibitors (BX795 10 µM, fludarabine 100 µM)
Procedure: LNZ308 cells were seeded as 3×10^6 cells per dish and treated with different regimens as described above, supernatants were harvested after 96 hpt and concentrated using Amicon Ultra-15 Ultracel-3K centrifugal filters (Merck Millipore, Billerica, USA) with subsequent determination of total protein concentration using Bradford protein assay (Bio-Rad Laboratories). The respective chemokine/cytokine concentrations were determined enzymatically per microgram of total protein using the respective DuoSet ELISA kits according to manufacturer's instructions (R&D Systems, Minneapolis, USA).

[1] = target: T1, interferon regulatory factor 1 (IRF1) (UniProt P10914 1-325); experiment: proximity ligation assay in LNZ308 cells treated with CT-VT-RT plus fludarabine
T1 sequence (looked up): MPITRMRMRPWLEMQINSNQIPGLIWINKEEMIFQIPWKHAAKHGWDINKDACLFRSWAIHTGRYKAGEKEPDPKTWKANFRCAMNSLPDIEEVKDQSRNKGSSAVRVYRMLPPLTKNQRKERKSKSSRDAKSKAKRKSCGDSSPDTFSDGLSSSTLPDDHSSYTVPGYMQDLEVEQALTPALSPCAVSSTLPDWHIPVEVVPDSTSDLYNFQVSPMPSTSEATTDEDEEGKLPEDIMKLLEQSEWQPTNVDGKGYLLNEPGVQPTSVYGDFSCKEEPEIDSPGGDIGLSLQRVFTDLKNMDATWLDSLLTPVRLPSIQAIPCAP

Work on O=NN(CCCl)C(=O)NC1CCCCC1 [CCNU, lomustine] yielded an EC50 (LN229 cells) of 16 µM and an EC50 (LNZ308 cells) of 45 µM.

Cn1nnc2c(C(N)=O)ncn2c1=O [TMZ, temozolomide] showed an EC50 (GS8 cells) of 250 µM.

With O=C(NCCCNc1nc(Nc2cccc(NC(=O)N3CCCC3)c2)ncc1I)c1cccs1 [BX795] the STAT1 protein phosphorylation (phospho-STAT1 (Y701)) was “downregulated; also recorded: complete loss of phospho-STAT1 (Y701)”, the STAT1 transcription (STAT1) was “downregulated” and the IFN-β protein (IFN-β) was “abolished; also recorded: complete loss of IFN-β production”.

B1: basic leucine zipper transcriptional factor ATF2-like protein (BATF2) (other, UniProt Q8N1L9 1-274, looked up)
chain: MHLCGGNGLLTQTDPKEQQRQLKKQKNRAAAQRSRQKHTDKADALHQQHESLEKDNLALRKEIQSLQAELAWWSRTLHVHERLCPMDCASCSAPGLLGCWDQAEGLLGPGPQGQHGCREQLELFQTPGSCYPAQPLSPGPQPHDSPSLLQCPLPSLSLGPAVVAEPPVQLSPSPLLFASHTGSSLQGSSSKLSALQPSLTAQTAPPQPLELEHPTRGKLGSSPDNPSSALGLARLQSREHKPALSAATWQGLVVDPSPHPLLAFPLLSSAQVHF
B1: binds [1].
